Where a name gives a salt, the structure may show the parent alone.
Assay: In vitro color change (ΔE*) of adjuvant plus dihydroxyacetone formulations on synthetic skin
Settings: for ΔE* at 5 hours / ΔE* at 21 hours / ΔE* at 46 hours: Example 4: total adjuvant at molar equivalent of 1% glycine, dihydroxyacetone 2.5%; for ΔE* at 5 hours: pH 3.5, 5 hours; for ΔE* at 21 hours: pH 3.5, 21 hours; for ΔE* at 46 hours: pH 3.5, 46 hours; for ΔE* at 5.5 Hours / ΔE* at 29 Hours / ΔE* at 53 Hours: adjuvant at molar equivalent of 1% glycine with 2.5% dihydroxyacetone, pH 3.5, 5 μl/cm^2, 35° C. and 40% RH
Protocol: Commercially available Vitro-Skin® (synthetic skin) was used as the substrate and pH of the adjuvant and dihydroxyacetone formulations were maintained at 3.5, adjusted with citric acid.
The synthetic skin was pre-hydrated at 95% Relative Humidity (RH) for about 24 hours and then treated with formulations at a dosage of 5 μl/cm^2. The treated synthetic skin was stored at 35° C. and 40% RH for certain time frames, not exceeding 53 hours. Color development was monitored periodically after treatment using a HunterLab Labscan XE colorimeter. ΔE* is defined as √[(ΔL*)^2+(Δa+)^2+(Δb*)^2] where ΔL* is lightness change, Δa* is the change in +red/−green, Δb* is the change in […] and further where smaller ΔE* indicates less color change.

| SMILES | ΔE* at 5 hours | ΔE* at 21 hours | ΔE* at 46 hours | ΔE* at 5.5 Hours | ΔE* at 29 Hours | ΔE* at 53 Hours |
| --- | --- | --- | --- | --- | --- | --- |
| NCCOS(=O)(=O)O [2-Aminoethyl Hydrogen Sulfate] | 15 | 25 | 27 | 20.0 | 35.0 | 39.0 |
| CSCCN [2-Methylthio-Ethylamine] |  |  |  | 22.0 | 32.0 | 36.0 |
| NCC(=O)O [Glycine, reference compound] |  |  |  | 15.5 | 33.0 | 37.0 |
| NCCS(=O)O [Hypotaurine] |  |  |  | 8.0 | 21.0 | 26.0 |
| NCCS(=O)(=O)O [Taurine] | 9 | 26 | 28 | 17.0 | 33.0 | 36.0 |

Source: US8961942B2, “Sunless tanning compositions with adjuvants comprising sulfur comprising moieties” (Conopco, Inc., priority 2011, dated 2015)
